# Target: DDR1 (Homo sapiens (Human), UniProt Q08345)
# Test: Measurement of DDR1 enzyme inhibitory activity (phosphorylation of biotinylated peptide, time-resolved fluorescence)
# Format: biochemical
# Details: human DDR1 enzyme, biotinylated peptide phosphorylation; read-out: DDR1 enzyme inhibition assay IC50
# Experimental: 1. Measurement of DDR1 Enzyme Inhibitory Activity
# The DDR1 enzyme inhibitory activity was determined with human DDR1 enzyme prepared using the baculovirus expression system, based on the inhibitory activity of phosphorylation of a biotinylated peptide ([…]) by the enzyme. The phosphorylated biotinylated peptide was detected using time-resolved fluorescence, with an anti-phosphorylated tyrosine antibody conjugated with europium cryptate and streptavidin conjugated with XL665 which is a derivative of allophycocyanin.
# Sequence of DDR1 (Q08345 19-913): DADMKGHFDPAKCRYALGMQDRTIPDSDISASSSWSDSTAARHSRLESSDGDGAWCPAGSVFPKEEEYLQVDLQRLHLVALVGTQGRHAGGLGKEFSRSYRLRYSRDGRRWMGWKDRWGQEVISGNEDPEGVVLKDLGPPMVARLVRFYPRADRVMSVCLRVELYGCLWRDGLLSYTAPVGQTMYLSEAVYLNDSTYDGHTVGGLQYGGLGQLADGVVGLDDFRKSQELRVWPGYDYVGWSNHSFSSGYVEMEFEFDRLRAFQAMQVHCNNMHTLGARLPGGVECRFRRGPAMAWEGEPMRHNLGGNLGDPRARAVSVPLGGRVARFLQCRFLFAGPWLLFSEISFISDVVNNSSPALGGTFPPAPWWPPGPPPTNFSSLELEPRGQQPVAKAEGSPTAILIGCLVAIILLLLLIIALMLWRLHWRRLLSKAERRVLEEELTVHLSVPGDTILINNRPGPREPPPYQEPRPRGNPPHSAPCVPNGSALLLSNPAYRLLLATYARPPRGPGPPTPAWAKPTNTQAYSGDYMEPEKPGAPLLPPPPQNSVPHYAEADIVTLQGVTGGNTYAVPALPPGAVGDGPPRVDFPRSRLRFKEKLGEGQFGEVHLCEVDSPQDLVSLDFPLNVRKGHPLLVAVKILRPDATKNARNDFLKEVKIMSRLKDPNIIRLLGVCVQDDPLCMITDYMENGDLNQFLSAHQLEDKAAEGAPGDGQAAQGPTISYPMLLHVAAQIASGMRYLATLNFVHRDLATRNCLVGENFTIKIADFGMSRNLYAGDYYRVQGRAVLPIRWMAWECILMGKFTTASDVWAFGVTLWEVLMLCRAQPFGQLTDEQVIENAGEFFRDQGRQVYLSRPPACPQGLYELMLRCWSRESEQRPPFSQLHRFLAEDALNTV
row,IC50 [nM],SMILES
1,400,"CCSc1ccc(Br)cc1Nn1cnc2c(Br)cc(OC(F)(F)F)cc2c1=O [Compound C-23, 8-Bromo-3-(5-bromo-2-ethylsulfanylanilino)-6-(trifluoromethoxy)quinazolin-4-one]"
2,110,"CCCS(=O)(=O)c1ccc(Cl)cc1Nn1cnc2c(Br)cc(C)cc2c1=O [Compound B-4, 8-Bromo-3-(5-chloro-2-propylsulfonylanilino)-6-methylquinazolin-4-one]"
3,240,"CCS(=O)(=O)c1ccc(Cl)cc1Nn1cnc2c(I)cc(C(F)(F)F)cc2c1=O [Compound A-13, 3-(5-Chloro-2-ethylsulfonylanilino)-8-iodo-6-(trifluromethyl)quinazolin-4-one]"
4,150,"CCS(=O)(=O)c1ccc(F)cc1Nn1cnc2c(Br)cc(OC(F)(F)F)cc2c1=O [Compound C-20, 8-Bromo-3-(2-ethylsulfonyl-5-fluoroanilino)-6-(trifluoromethoxy)quinazolin-4-one]"
5,150,"CCS(=O)(=O)c1ccc(OC)cc1Nn1cnc2c(Br)cc(C(F)(F)F)cc2c1=O [Compound C-30, 8-Bromo-3-(2-ethylsulfonyl-5-methoxyanilino)-6-(trifluoromethyl)quinazolin-4-one]"
6,480,"CCSc1ccc(Cl)cc1Cn1cnc2ccc(OC(F)(F)F)cc2c1=O [Compound E-3, 3-[(5-Chloro-2-ethylsulfanylphenyl)methyl]-6-(trifluoromethoxy)quinazolin-4-one]"
7,490,"CCS(=O)(=O)c1ccc([N+](=O)[O-])cc1Cn1ccc2ccc(C(F)(F)F)cc2c1=O [Compound F-6, 2-[(2-Ethylsulfonyl-5-nitrophenyl)methyl]-7-(trifluoromethyl)isoquinolin-1-one]"
8,430,"CCS(=O)(=O)c1ccc(C#N)cc1Nn1cnc2cc(Br)c(OC(F)(F)F)cc2c1=O [Compound C-18, 3-[[7-bromo-4-oxo-6-(trifluoromethoxy)quinazolin-3-yl]amino]-4-ethylsulfonylbenzonitrile]"
9,1350,"CCS(=O)(=O)c1ccc(Cl)cc1Nn1cnc2c(-c3ccc(F)cc3)cc(C)cc2c1=O [Compound A-4, 3-(5-Chloro-2-ethylsulfonylanilino)-8-(4-fluorophenyl)-6-methylquinazolin-4-one]"
10,1100,"CCS(=O)(=O)c1ccc(Cl)cc1Cn1cnc2cc(C)c(Br)cc2c1=O [Compound E-6, 6-Bromo-3-[(5-chloro-2-ethylsulfonylphenyl)methyl]--7-methylquinazolin-4-one]"
11,290,"Cc1cc(Br)c2ncn(Nc3cc(Cl)ccc3S(=O)(=O)c3ccccc3)c(=O)c2c1 [Compound B-14, 3-[2-(Benzenesulfonyl)-5-chloroanilino]-8-bromo-6-methylquinazolin-4-one]"
12,130,"CCSc1ccc(C#N)cc1Nn1cnc2cc(C)c(Br)cc2c1=O [Compound C-5, 3-[(6-bromo-7-methyl-4-oxoquinazolin-3-yl)amino]-4-ethylsulfanylbenzonitrile]"
13,99,"CCSc1ccc(C#N)cc1Nn1cnc2ccc(C(F)(F)F)cc2c1=O [Compound C-9, 4-Ethylsulfanyl-3-[[4-oxo-6-(trifluoromethyl)quinazolin-3-yl]amino]benzonitrile]"
14,880,"CCSc1ccc(Cl)cc1Nn1cnc2cc(Br)c(C)cc2c1=O [Compound A-5, 7-Bromo-3-(5-chloro-2-ethylsulfanylanilino)-6-methylquinazolin-4-one]"
15,1970,"CCOc1ccc(S(=O)(=O)CC)c(Nn2cnc3c(Br)cc(C(F)(F)F)cc3c2=O)c1 [Compound C-32, 8-Bromo-3-(5-ethoxy-2-ethylsulfonylanilino)-6-(trifluoromethyl)quinazolin-4-one]"
16,950,"CCSc1ccc(Cl)cc1Cn1cnc2cc(C)c(Br)cc2c1=O [Compound E-5, 6-Bromo-3-[(5-chloro-2-ethylsulfanylphenyl)methyl]-7-methylquinazolin-4-one]"
17,170,"CCSc1ccc(C(F)(F)F)cc1Nn1cnc2c(Br)cc(C(F)(F)F)cc2c1=O [Compound C-34, 8-Bromo-3-[2-ethylsulfanyl-5-(trifluoromethyl)anilino]-6-(trifluoromethyl)quinazolin-4-one]"
18,790,"CCSc1ccc(Cl)cc1Cn1cnc2cc(C)c(I)cc2c1=O [Compound E-7, 3-[(5-Chloro-2-ethylsulfanylphenyl)methyl]-6-iodo-7-methylquinazolin-4-one]"
19,250,"CCOc1ccc2ncn(Nc3cc(Cl)ccc3SCC)c(=O)c2c1 [Compound A-36, 3-(5-Chloro-2-ethylsulfanylanilino)-6-ethoxyquinazolin-4-one]"
20,410,"CCCc1ccc(Cl)cc1Nn1cnc2ccc(OC(F)(F)F)cc2c1=O [Compound B-17, 3-(5-Chloro-2-propylanilino)-6-(trifluoromethoxy)quinazolin-4-one]"
21,750,"CCSc1ccc(C#N)cc1Nn1cnc2ncc(Br)cc2c1=O [Compound C-7, 3-[(6-Bromo-4-oxopyrido[2,3-d]pyrimidin-3-yl)amino]-4-ethylsulfanylbenzonitrile]"

row,IC50 [nM],SMILES
1,330,"CCOc1ccc(SCC)c(Nn2cnc3c(Br)cc(C(F)(F)F)cc3c2=O)c1 [Compound C-31, 8-Bromo-3-(5-ethoxy-2-ethylsulfanylanilino)-6-(trifluoromethyl)quinazolin-4-one]"
2,270,"CCS(=O)(=O)c1ccc(C#N)cc1Nn1cnc2ccc(OC(F)(F)F)cc2c1=O [Compound C-16, 4-Ethylsulfonyl-3-[[4-oxo-6-(trifluoromethoxy)quinazolin-3-yl]amino]benzonitrile]"
3,140,"CCS(=O)(=O)c1c(Cl)cc(Cl)cc1Nn1cnc2ccc(C(F)(F)F)cc2c1=O [Compound C-39, 3-(3,5-Dichloro-2-ethylsulfonylanilino)-6-(trifluoromethyl)quinazolin-4-one]"
4,1340,"CCS(=O)(=O)c1ccc(N)cc1Cn1ccc2ccc(OC(F)(F)F)cc2c1=O [Compound F-10, 2-[(5-Amino-2-ethylsulfonylphenyl)methyl]-7-(trifluoromethoxy)isoquinolin-1-one]"
5,200,"CCSc1ccc(Cl)cc1Nn1cnc2ccc(CC)cc2c1=O [Compound A-52, 3-(5-Chloro-2-ethylsulfanylanilino)-6-ethylquinazolin-4-one]"
6,810,"CCS(=O)(=O)c1ccc([N+](=O)[O-])cc1Cn1ccc2ccc(OC(F)(F)F)cc2c1=O [Compound F-9, 2-[(2-Ethylsulfonyl-5-nitrophenyl)methyl]-7-(trifluoromethoxy)isoquinolin-1-one]"
7,88,"CCSc1ccc(Cl)cc1Nn1cnc2ccc(F)cc2c1=O [Compound A-28, 3-(5-Chloro-2-ethylsulfanylanilino)-6-fluoroquinazolin-4-one]"
8,270,"CCSc1ccc(Cl)cc1Nn1cnc2cnc(OC)cc2c1=O [Compound A-21, 3-(5-Chloro-2-ethylsulfanylanilino)-6-methoxypyrido[3,4-d]pyrimidin-4-one]"
9,160,"CCSc1ccc(OC)cc1Nn1cnc2c(Br)cc(C(F)(F)F)cc2c1=O [Compound C-29, 8-Bromo-3-(2-ethylsulfanyl-5-methoxyanilino)-6-(trifluoromethyl)quinazolin-4-one]"
10,280,"C#Cc1ccc(SCC)c(Nn2cnc3c(Br)cc(C(F)(F)F)cc3c2=O)c1 [Compound C-36, 8-Bromo-3-(2-ethylsulfanyl-5-ethynylanilino)-6-(trifluoromethyl)quinazolin-4-one]"
11,400,"CCSc1ccc(Cl)cc1Nn1cnc2c(Cl)cc(C(F)(F)F)cc2c1=O [Compound A-11, 8-Chloro-3-(5-chloro-2-ethylsulfanylanilino)-6-(trifluoromethyl)quinazolin-4-one]"
12,490,"CCS(=O)(=O)c1ccc(Cl)cc1Cn1ccc2ccc(OC)cc2c1=O [Compound F-3, 2-[(5-Chloro-2-ethylsulfonylphenyl)methyl]-7-methoxyisoquinolin-1-one]"
13,180,"CCc1ccc2ncn(Nc3cc(Cl)ccc3S(=O)(=O)CC)c(=O)c2c1 [Compound A-53, 3-(5-Chloro-2-ethylsulfonylanilino)-6-ethylquinazolin-4-one]"
14,160,"CCSc1ccc(Cl)cc1Nn1cnc2ncc(C(F)(F)F)cc2c1=O [Compound A-23, 3-(5-Chloro-2-ethylsulfanylanilino)-6-(trifluoromethyl)pyrido[2,3-d]pyrimidin-4-one]"
15,330,"CCCc1ccc2ncn(Nc3cc(Cl)ccc3SCC)c(=O)c2c1 [Compound A-54, 3-(5-Chloro-2-ethylsulfanylanilino)-6-propylquinazolin-4-one]"
16,110,"CCSc1ccc(Cl)cc1Nn1cnc2c(-c3ccc(F)cc3)cc(C)cc2c1=O [Compound A-3, 3-(5-Chloro-2-ethylsulfanylanilino)-8-(4-fluorophenyl)-6-methylquinazolin-4-one]"
17,280,"CCSc1c(Cl)cc(Cl)cc1Nn1cnc2ccc(C(F)(F)F)cc2c1=O [Compound C-38, 3-(3,5-Dichloro-2-ethylsulfanylanilino)-6-(trifluoromethyl)quinazolin-4-one]"
18,220,"CCSc1ccc(Cl)cc1Nn1cnc2ccc(I)cc2c1=O [Compound A-60, 3-(5-Chloro-2-ethylsulfanylanilino)-6-iodoquinazolin-4-one]"
19,630,"CCS(=O)(=O)c1ccc(C#N)cc1Cn1cnc2ccc(C(F)(F)F)cc2c1=O [Compound E-28, 4-Ethylsulfonyl-3-[[4-oxo-6-(trifluoromethyl)quinazolin-3-yl]methyl]benzonitrile]"
20,130,"CCS(=O)(=O)c1ncc(Cl)cc1Nn1cnc2c(Br)cc(C)cc2c1=O [Compound D-5, 8-Bromo-3-[(5-chloro-2-ethylsulfonylpyridin-3-yl)amino]-6-methylquinazolin-4-one]"

# Same assay, conditions: read-out: DDR1 enzyme inhibition assay IC50
row,IC50 [nM],SMILES
1,200,"CCS(=O)(=O)c1ccc(Cl)cc1Cn1cnc2c(Br)c(CN3CCN(C(C)C)CC3)c(Br)cc2c1=O [Compound L-12, 6,8-Dibromo-3-[(5-chloro-2-ethylsulfonylphenyl)methyl]-7-[(4-propan-2-ylpiperazin-1-yl)methyl]quinazolin-4-one]"

# — US10005739B2, “Quinazolinone and isoquinolinone derivative” (CHUGAI SEIYAKU KABUSHIKI KAISHA, priority 2013, dated 2018)
